Data on 52 compounds can be found in PubChem BioAssay AID1996.

One may read the kinetic solubility as the concentration staying in solution when a stock, usually in DMSO, is diluted into the medium.

≈ marks a conversion by molar mass, not a printed value. Bounds are passed on as bounds.

For the data set the following is noted: buffer; pH 7.4; 200.0 µM.
Turning to `C/C(CC(C)C)=N\Oc1nc(C)cc(C)n1`, the kinetic solubility is above 0.0332 mg/mL.
For the compound `CN(Cc1cnccn1)Cc1nc(Cc2ccccc2Cl)no1`, the solubility (kinetic) came out at 0.0439 mg/mL (≈ 133 µM).
Next, `CN(C)C(=O)c1cc(C(=O)c2ccccc2Br)c[nH]1`: 0.0444 mg/mL (≈ 138 µM).
Under `CN1C(=S)SC(C)(C)C1N(O)C(=O)Nc1ccc(Cl)cc1` (configuration not stated) stands 0.0042 mg/mL (≈ 12.1 µM).
Consider `O=[N+]([O-])c1cccc(/C=C/c2ccncc2)c1`, for which the solubility (kinetic) came to 0.0119 mg/mL (≈ 52.6 µM).
In the case of `Cc1cc(C)n2nc(SCC(=O)Nc3ccccc3F)nc2n1`, the solubility (kinetic) is above 0.0497 mg/mL.
With `Fc1cc(Br)ccc1NC(=S)Nc1cccnc1`, the kinetic solubility came out at 0.0448 mg/mL (≈ 137 µM).
Next, `COc1ccc(NC(=O)Cc2ccc(C)c(C)c2)cc1Cl`: 0.0021 mg/mL (≈ 6.91 µM); `O=C(NCc1ccccc1Br)c1ccncc1`: 0.0399 mg/mL (≈ 137 µM); `COc1ccccc1C(=O)NCCCCNC(=O)c1ccccc1OC`: above 0.0535 mg/mL.
Under `O=C(O)c1cc(-n2cccc2)ccc1N1CCOCC1` stands above 0.0408 mg/mL.
Under `CCOC(=O)c1ccccc1NC(=O)C1CCCO1` (configuration not stated) stands above 0.0395 mg/mL; under `Cc1ccc(Cl)cc1NC(=O)COC(=O)c1ccccc1O`, below 0.0007 mg/mL; under `CC(=O)Nc1ccc2c(c1)C(=O)N(c1cccc3ccccc13)C2=O`, 0.0082 mg/mL (≈ 24.8 µM).
`O=C(O)c1ccccc1NS(=O)(=O)c1cccc(NS(=O)(=O)c2cc(Br)ccc2Br)c1` came in with a solubility (kinetic) above 0.0885 mg/mL.
Turning to `CC(NC(=O)c1cccs1)c1ccccc1` (configuration not stated), the solubility (kinetic) was above 0.0347 mg/mL.
Under `COC(=O)c1c(C)[nH]c(C=Nc2ccc(OC)cc2)c1C` stands 0.03 mg/mL (≈ 105 µM).
Next, `COc1ccccc1CC(=O)Nc1cccc2ccccc12`: 0.0025 mg/mL (≈ 8.58 µM); `COc1ccc(N2CCN(C(=O)c3cc4c(s3)CCCCC4)CC2)cc1`: 0.0053 mg/mL (≈ 14.3 µM); `O=S(=O)(c1ccc(Cl)cc1Cl)N1CCCC1c1cccnc1` (configuration not stated): above 0.0536 mg/mL.
The compound `Cc1cc2c([nH]c3ccccc32)c(C)[nH+]1.[Cl-]` gave a kinetic solubility of 0.0262 mg/mL.
On to `S=C(NCCc1c[nH]c2ccccc12)NC1CC1`, for which the solubility (kinetic) was above 0.0389 mg/mL.
Compound `CCNC(=O)c1ccccc1-c1nc(-c2ccccc2)no1` had a kinetic solubility of 0.0354 mg/mL (≈ 121 µM).
`COc1cc(CNCc2ccncc2)cc(OC)c1OC.Cl` returned a kinetic solubility above 0.0487 mg/mL.
Turning to `COC(=O)CNC(=O)COC(=O)c1ccc(Cl)nc1`, the solubility (kinetic) is above 0.043 mg/mL.
The compound `O=C(COC(=O)C1CC(=O)N(Cc2ccco2)C1)Nc1nc(-c2ccc(F)cc2)cs1` (configuration not stated) gave a kinetic solubility of 0.0169 mg/mL (≈ 38.1 µM).
Under `COc1ccc(C(=O)OCC(=O)N2CCN(C(=O)c3ccco3)CC2)cc1OC` stands above 0.0604 mg/mL; under `CC1=C(c2ccccc2)C(=S)NC(C)(C)C1`, 0.0025 mg/mL (≈ 10.8 µM).
With `CCCNC(=S)N1CCC(Cc2ccccc2)CC1`, the solubility (kinetic) came to 0.0283 mg/mL (≈ 102 µM). Against the preceding compound, the solubility kinetic is about 11-fold higher.
Take `CCOC(=O)CNC(=O)Cn1cnc2c(oc3ccccc32)c1=O`: the solubility (kinetic) was above 0.0494 mg/mL.
Under `Cc1cc(O)c(Sc2ccc(Cl)cc2)c(=O)[nH]1` stands above 0.0402 mg/mL.
Compound `CCOc1ccccc1C(=O)Nc1cc(C)ccc1NC(=O)c1ccco1` gave a solubility (kinetic) of 0.0434 mg/mL (≈ 119 µM).
Next, `C[N+](C)(C)CC#CCN1CCCC1=O.[I-]`: above 0.0483 mg/mL; `O=C(CNC(=O)c1cccc(F)c1)NC1CC1`: above 0.0354 mg/mL.
Under `NC(=O)CC(CC(=O)OCc1ccccc1)c1ccccc1` (configuration not stated) stands 0.038 mg/mL (≈ 128 µM); under `Cc1ccsc1-c1nc(CN2C[C@@H](C)O[C@@H](C)C2)c(C)o1`, above 0.046 mg/mL; under `Cc1ccc(NC(=O)COC(=O)C2CCC2)cc1S(=O)(=O)N1CCOCC1`, above 0.0595 mg/mL.
Under `O=C(CNC(=O)c1cccc(F)c1)N/N=C/c1cccs1` stands above 0.0458 mg/mL.
Regarding `CN(Cc1ccccc1)Cc1c(O)ccc2ccccc12`, the kinetic solubility stood at 0.0266 mg/mL (≈ 95.9 µM).
Under `Nc1nc(NC(=O)c2ccccc2Cl)nn1-c1ccccc1` stands above 0.0471 mg/mL; under `Cc1nc([N+](=O)[O-])cn1CC(=O)c1ccc(Cl)cc1`, 0.0037 mg/mL (≈ 13.2 µM); under `Cl.NC(=NCCc1ccccc1)NC(=O)c1cc(Cl)ccc1O`, 0.0106 mg/mL.
Under `CCCOc1ccc(C(=O)NCCC(=O)NCCCC(=O)O)cc1` stands above 0.0505 mg/mL; under `O=C(/C=C/c1ccc2c(c1)OCO2)NCC1CCCO1` (configuration not stated), above 0.0413 mg/mL; under `O=C(Nc1ccccc1Oc1ccccc1)C1=COCCO1`, 0.0343 mg/mL (≈ 115 µM).
Next, `Cc1nn(CC(=O)NCCC2=CCCCC2)c(C)c1S(=O)(=O)N(C)C`: above 0.0553 mg/mL; `CC1CCCCN1S(=O)(=O)c1ccc([N+](=O)[O-])cc1` (configuration not stated): 0.0225 mg/mL (≈ 79.1 µM).
`Cc1ccc(C2CC2/C(=N/O)c2ccc(F)cc2)cc1` (configuration not stated) registered a kinetic solubility of 0.0031 mg/mL (≈ 11.5 µM).
Next, `Cc1onc(C(=O)Nc2cccc(C(F)(F)F)c2)c1[N+](=O)[O-]`: 0.0324 mg/mL (≈ 103 µM); `CC1CCCN(Cc2csc(N)n2)C1` (configuration not stated): above 0.0317 mg/mL; `CCN(CC)C(=O)c1cccc(NC(=O)C2CCN(C(=O)c3cccs3)CC2)c1`: above 0.062 mg/mL.
Under `CC(C)Cc1ccc(C(=O)NCCOc2ccccc2)o1` stands 0.0292 mg/mL (≈ 102 µM).
